Reference: patent US8859557B2, “Substituted oxindole derivatives and their use as vasopressin receptor ligands” (Abbott GmbH & Co. KG, priority 2006, dated 2014)
Where a name gives a salt, the structure may show the parent alone.

How the values were obtained:
[1] = molecular target: T1, human vasopressin V1b receptor (Homo sapiens, UniProt P47901); experiment: Vasopressin V1b receptor binding assay; conditions: displacement of 3H-AVP, membranes of CHO-K1 cells with human V1b receptor
T1 construct: expressed in transfected cells; host or cells: CHO-K1 (cell line hV1b-3H2_CHO), membrane preparation
T1 sequence (P47901 1-424): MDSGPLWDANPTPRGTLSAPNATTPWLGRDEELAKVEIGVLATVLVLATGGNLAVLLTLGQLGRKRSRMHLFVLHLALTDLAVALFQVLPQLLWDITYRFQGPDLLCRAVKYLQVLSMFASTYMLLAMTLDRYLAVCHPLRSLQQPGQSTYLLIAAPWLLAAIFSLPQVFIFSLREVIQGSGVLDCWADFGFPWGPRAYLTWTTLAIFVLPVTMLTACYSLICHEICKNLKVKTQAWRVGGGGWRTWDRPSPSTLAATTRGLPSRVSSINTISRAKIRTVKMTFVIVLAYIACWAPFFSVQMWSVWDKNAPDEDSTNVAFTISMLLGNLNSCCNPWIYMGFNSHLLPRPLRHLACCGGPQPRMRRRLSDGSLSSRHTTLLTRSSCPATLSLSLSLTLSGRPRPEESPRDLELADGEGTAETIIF
Procedure: Methods for Determining the Biological Activity Vasopressin V1b Receptor Binding Assay: Substances:
This series of DMSO predilutions was diluted 1:10 with assay buffer. The substance concentration was again diluted 1:5 in the assay mixture (2% DMSO in the mixture).
All determinations were carried out as triplicate determinations.

[2] = molecular target: human vasopressin V1a receptor (Homo sapiens, UniProt P37288); experiment: Vasopressin V1a receptor binding assay; conditions: selectivity for V1b over V1a, quotient of Ki values
[3] = molecular target: T2, recombinant human oxytocin receptors (Homo sapiens, UniProt P30559); experiment: Oxytocin receptor binding assay; conditions: selectivity for V1b over oxytocin receptor, quotient of Ki values
T2 construct: expressed in transfected cells; host or cells: HEK-293, transient expression; lysed and homogenized cells
T2 sequence (P30559 1-389): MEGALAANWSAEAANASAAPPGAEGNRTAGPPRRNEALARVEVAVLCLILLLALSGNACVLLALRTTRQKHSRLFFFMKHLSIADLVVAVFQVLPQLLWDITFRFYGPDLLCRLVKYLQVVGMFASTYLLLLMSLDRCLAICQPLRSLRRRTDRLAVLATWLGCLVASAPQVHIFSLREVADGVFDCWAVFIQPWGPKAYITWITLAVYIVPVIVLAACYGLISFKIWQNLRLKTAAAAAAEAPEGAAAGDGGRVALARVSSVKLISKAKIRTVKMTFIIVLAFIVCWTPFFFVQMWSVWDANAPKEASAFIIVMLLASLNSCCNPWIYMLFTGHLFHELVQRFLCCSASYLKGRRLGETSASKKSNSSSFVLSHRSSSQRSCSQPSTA
Procedure: Oxytocin Receptor Binding Assay
Confluent HEK-293 cells with transiently expressing recombinant human oxytocin receptors were centrifuged at 750×g and at room temperature for 5 minutes. The residue was taken up in ice-cold lysis buffer (50 mM Tris-HCl, 10% glycerol, pH 7.4 and Roche Complete Protease Inhibitor) and subjected to an osmotic shock at 4° C. for 20 minutes. The lyzed cells were then centrifuged at 750×g and at 4° C. for 20 minutes, the residue was taken up in incubation buffer, and aliquots of 10^7 cells/ml were prepared. The aliquots were frozen at −80° C. until used.
On the day of the experiment, the cells were thawed, diluted with incubation buffer and homogenized using a Multipette Combitip (Eppendorf, Hamburg). […] The nonspecific binding was determined with 10^−6 M oxytocin (Bachem AG, H2510). Determinations in triplicate were set up. Bound and free radioligand were separated by filtration under vacuum with Whatman GF/B glass fibre filters using a Skatron cell harvester 7000. The bound radioactivity was determined by liquid scintillation measurement in a Tricarb beta counter, model 2000 or 2200CA (Packard).

[4] = Determination of the microsomal half-life / microsomal clearance (human); format: in vitro ADME; conditions: pH 7.4; human liver microsomes, 0.5 μM test substance, 0.25 mg microsomal protein/ml; read-out: Human Mikrosomal Clearance
Procedure: The metabolic stability of a compound can be determined, for example, by incubating a solution of this compound with liver microsomes from particular species (for example rat, dog or human) and determining the half-life of the compound under these conditions (RS Obach, Curr Opin Drug Discov Devel. 2001, 4, 36-44). It is possible to conclude from an observed larger half-life that the metabolic stability of the compound is improved. The stability in the presence of human liver microsomes is of particular interest since it makes it possible to predict the metabolic degradation of the compound in the human liver. Compounds with increased metabolic stability (determined in the liver microsome test) are therefore probably also degraded more slowly in the liver. The slower metabolic degradation in the liver can lead to higher and/or longer-lasting concentrations (effective levels) of the compound in the body, so that the elimination half-life of the compounds according to the invention is increased. Increased and/or longer-lasting effective levels may lead to a better efficacy of the compound in the treatment or prophylaxis of various vasopressin-dependent diseases. An improved metabolic stability may additionally lead to an increased bioavailability after oral administration, because the compound is subjected, after being absorbed in the intestine, to less metabolic degradation in the liver (so-called first pass effect). An increased oral bioavailability may, because the concentration (effective level) of the compound is increased, lead to a better efficacy of the compound after oral administration.
Determination of the Microsomal Half-Life:
The metabolic stability of the compounds of the invention was determined in the following assay.
The test substances are incubated in a concentration of 0.5 μM as follows:
0.5 μM test substance is preincubated together with liver microsomes of various species (rat, human or other species) (0.25 mg of microsomal protein/ml) in 0.05M potassium phosphate buffer pH 7.4 in microtitre plates at 37° C. for 5 min. The reaction is started by adding NADPH (1 mg/ml). 50 μl aliquots are taken after 0, 5, 10, 15, 20 and 30 min, and the reaction is stopped immediately with the same volume of acetonitrile and cooled down. The samples are frozen until analyzed. Using MSMS, the remaining concentration of undegraded test substance is determined. From the […] of the test substance signal/time unit curve, the half-life (T½) is determined, where the half-life of the test substance can be calculated, assuming first order kinetics, from the decrease in the concentration of the compound with time. The microsomal clearance (mCl) is calculated as mCl=In2/T½/(content of microsomal protein in mg/ml)×1000 [ml/min/mg] (modified according to the literature references: Di, The Society for Biomoleculaur Screening, 2003, 453-462; Obach, DMD, 1999 vol 27. N 11, 1350-1359).

Sequence of human vasopressin V1a receptor (P37288 whole entry): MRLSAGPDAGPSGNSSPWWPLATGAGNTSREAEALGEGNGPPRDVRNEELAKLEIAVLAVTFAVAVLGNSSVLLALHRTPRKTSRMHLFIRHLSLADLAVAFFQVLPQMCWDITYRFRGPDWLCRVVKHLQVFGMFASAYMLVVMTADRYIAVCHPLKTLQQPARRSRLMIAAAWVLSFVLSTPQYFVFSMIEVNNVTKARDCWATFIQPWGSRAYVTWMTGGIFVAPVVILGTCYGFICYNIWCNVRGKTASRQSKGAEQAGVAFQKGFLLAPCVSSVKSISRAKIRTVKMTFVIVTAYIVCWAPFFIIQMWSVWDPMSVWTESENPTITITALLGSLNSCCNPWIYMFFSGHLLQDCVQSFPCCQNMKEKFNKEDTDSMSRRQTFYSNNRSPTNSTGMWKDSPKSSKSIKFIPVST

Compound	Ki [1] [nM]	Ki(h-V1a)/Ki(h-V1b) [2]	Ki(h-OT)/Ki(h-V1b) [3]	microsomal CLint at 0.5 μM [4] [µL/min/mg]
CCOc1ncccc1C1(NC(=O)N2CCC(C3CCN(CC)CC3)CC2)C(=O)N(S(=O)(=O)c2ccc(OC)cc2OC)c2ccc(C#N)cc21.O=C(O)C(F)(F)F (single isomer, unassigned) [Example 67B, (−)-N-[5-Cyano-1-[(2,4-dimethoxyphenyl)sulphonyl]-3-(2-ethoxypyridin-3-yl)-2-oxo-2,3-dihydro-1H-indol-3-yl]-1′-ethyl-4,4′-bipiperidine-1-carboxamide trifluoroacetate]	< 10	+++ (>100)	+++ (>50)	
CCOc1ncccc1C1(NC(=O)N2CCN(C3CCN(C)CC3)CC2)C(=O)N(S(=O)(=O)c2ccc(OC)cc2)c2ccc(C#N)cc21 (racemic) [Example 5, N-[5-Cyano-3-(2-ethoxypyridin-3-yl)-1-[(4-methoxyphenyl)sulphonyl]-2-oxo-2,3-dihydro-1H-indol-3-yl]-4-(1-methylpiperidin-4-yl)piperazine-1-carboxamide]				< 60
CCOc1ncccc1C1(NC(=O)N2CCN(C3CCN(C)CC3)CC2)C(=O)N(S(=O)(=O)c2ccccc2OC)c2ccc(C#N)cc21 (racemic) [Example 2, N-{5-Cyano-3-(2-ethoxypyridin-3-yl)-1-[(2-methoxyphenyl)sulphonyl]-2-oxo-2,3-dihydro-1H-indol-3-yl}-4-(1-methylpiperidin-4-yl)piperazine-1-carboxamide]	10 to 50	+++ (>100)	+++ (>50)	
CCOc1ncccc1C1(NC(=O)N2CCC(N3CCN(C)CC3)CC2)C(=O)N(S(=O)(=O)c2ccccc2)c2ccc(C#N)cc21 (racemic) [Example 34, N-[5-Cyano-3-(2-ethoxypyridin-3-yl)-2-oxo-1-(phenylsulphonyl)-2,3-dihydro-1H-indol-3-yl]-4-(4-methylpiperazin-1-yl)piperidine-1-carboxamide]				< 60
CCOc1ncccc1[C@]1(NC(=O)N2CCC(C3CCN(C)CC3)CC2)C(=O)N(S(=O)(=O)c2ccc(OC)cc2OC)c2ccc(C#N)cc21 (single isomer, unassigned) [Example 61B, (−)-N-[5-Cyano-1-[(2,4-dimethoxyphenyl)sulphonyl)-3-(2-ethoxypyridin-3-yl)-2-oxo-2,3-dihydro-1H-indol-3-yl]-1′-methyl-4,4′-bipiperidine-1-carboxamide trifluoroacetate]	< 10			< 60
CCOc1ncccc1C1(NC(=O)N2CCC(C3CCN(C)CC3)CC2)C(=O)N(S(=O)(=O)c2ccc(OC)cc2OC)c2ccc(C#N)cc21.O=C(O)C(F)(F)F (single isomer, unassigned) [Example 61B, (−)-N-[5-Cyano-1-[(2,4-dimethoxyphenyl)sulphonyl)-3-(2-ethoxypyridin-3-yl)-2-oxo-2,3-dihydro-1H-indol-3-yl]-1′-methyl-4,4′-bipiperidine-1-carboxamide trifluoroacetate]		+++ (>100)	+++ (>50)	
CCCN1CCN(C2CCN(C(=O)NC3(c4cccnc4OCC)C(=O)N(S(=O)(=O)c4ccc(OC)cc4OC)c4ccc(C#N)cc43)CC2)CC1 (racemic) [Example 43, N-[5-Cyano-1-[(2,4-dimethoxyphenyl)sulphonyl]-3-(2-ethoxypyridin-3-yl)-2-oxo-2,3-dihydro-1H-indol-3-yl]-4-(4-propylpiperazin-1-yl)piperidine-1-carboxamide]	< 10	+++ (>100)	+++ (>50)	
CCOc1ncccc1C1(NC(=O)N2CCC(C3CCN(C)CC3)CC2)C(=O)N(S(=O)(=O)c2ccc(OC)cc2OC)c2ccc(C#N)cc21 (racemic) [Example 61, N-[5-Cyano-1-[(2,4-dimethoxyphenyl)sulphonyl]-3-(2-ethoxypyridin-3-yl)-2-oxo-2,3-dihydro-1H-indol-3-yl]-1′-methyl-4,4′-bipiperidine-1-carboxamide]	< 10	+++ (>100)	+++ (>50)	
CCOc1ncccc1C1(NC(=O)N2CCC(N3CCN(C)CC3)CC2)C(=O)N(S(=O)(=O)c2ccccc2OC)c2ccc(C#N)cc21 (racemic) [Example 32, N-[5-Cyano-3-(2-ethoxypyridin-3-yl)-1-[(2-methoxyphenyl)sulphonyl]-2-oxo-2,3-dihydro-1H-indol-3-yl]-4-(4-methylpiperazin-1-yl)piperidine-1-carboxamide]	10 to 50	+ (15-50)	+++ (>50)	
CCOc1ncccc1C1(NC(=O)N2CCC(C3CCN(CC)CC3)CC2)C(=O)N(S(=O)(=O)c2ccc(OC)cc2OC)c2ccc(C#N)cc21.O=C(O)C(F)(F)F (racemic) [Example 67, N-[5-Cyano-1-[(2,4-dimethoxyphenyl)sulphonyl]-3-(2-ethoxypyridin-3-yl)-2-oxo-2,3-dihydro-1H-indol-3-yl]-1′-ethyl-4,4′-bipiperidine-1-carboxamide trifluoroacetate]	< 10	+++ (>100)	+++ (>50)	
CCOc1ccccc1S(=O)(=O)N1C(=O)C(NC(=O)N2CCN(C3CCN(C)CC3)CC2)(c2cccnc2OCC)c2cc(C#N)ccc21.O=C(O)C(F)(F)F (racemic) [Example 3, N-[5-Cyano-1-[(2-ethoxyphenyl)sulphonyl]-3-(2-ethoxypyridin-3-yl)-2-oxo-2,3-dihydro-1H-indol-3-yl]-4-(1-methylpiperidin-4-yl)piperazine-1-carboxamide trifluoroacetate]	10 to 50	+++ (>100)	+++ (>50)	
